Read-outs that look alike come from different tables or passages of the source.
Experiments:
[1] = system: G. lamblia WB (MtzS); assay: ATP-bioluminescence growth/survival EC50 assay, G. lamblia WB; details: for EC50: Giardia duodenalis; for S.I (CC50/EC50): average cytotoxicity against HEK293 and HepG2 / G. lamblia WB activity
Procedure: (§1) Compounds were screened for antiparasitic activity using an ATP-bioluminescence based assay for cell growth and survival, [24]. […] Viable cell numbers were determined in triplicate using the CellTiter-Glo Luminescent Cell Viability Assay.

[2] = system: C. difficile NAP1/027 (ATCC BAA-1803); assay: Broth microdilution MIC assay, C. difficile NAP1/027; assay type: cell-based, Clostridium difficile; details: Clostridioides difficile, ATCCBAA1803; strain NAP1/027
Procedure: Clostridium difficile strains (630, ATCC BAA-1382 and NAP1/027, ATCC BAA-1803) were maintained as previously described. The minimum inhibition concentration (MIC) was determined according to the CLSI Methods with modifications in broth and inoculum for C. difficile, [25], [26]. Briefly, compounds and control antibiotics were serially diluted two-fold in 96-well plates (Non-binding surface, Corning). The plates were placed in a Coy anaerobic chamber (5% H2, 10% CO2, 85% N2) overnight to reduce the medium. C. difficile bacteria from BHIS(TA) agar plates were cultured anaerobically in BHIS at 37 °C overnight. […]. Compound concentration ranged from 64 to 0.03 μg/mL. An antibiotic standard, a positive growth control (no compound) and a sterility control (no bacteria) were included on each 96 well plate. Plates were covered and incubated at 37 °C for 24 h. MICs for each strain were determined as the lowest concentration without visible growth. Variance between replicates was typically within one 2-fold dilution. Median MICs are reported with a range given when the median MIC was between two tested concentrations.

[3] = Resazurin cytotoxicity assay, HEK293; assay type: cell-based, Human; details: human, 24 h, highest concentration 100 μM, n = 3, read-out: CC50 HEK 293
Procedure: (§2) Human HEK293 and HepG2 cells were seeded at 3000 and 5000 cells per well in 384-well plates, respectively. Cells were cultured in Dulbecco's modified Eagle's medium with 10% FBS for 24 h at 37 °C, 5% CO2. A dilution series of compounds was added, with the highest concentration of 100 μM. […] After 24 h incubation with the compounds, 5 μM resazurin was added into each well and incubated at 37 °C for 2 h. As a negative control, 1% Triton X-100 was added into the culture media to lyse all of the cells. The fluorescence intensity was read using Polarstar Omega with excitation/emission 560/590 nm. Data were analysed with GraphPad Prism 6 software (La Jolla, California USA) to calculate CC50 values.

[4] = Resazurin cytotoxicity assay, HepG2; assay type: cell-based, Human; details: human, 24 h, highest concentration 100 μM, n = 3, read-out: CC50 Hep G2
Procedure: as §2

[5] = system: E. histolytica HM1:IMSS; assay: ATP-bioluminescence growth/survival EC50 assay, E. histolytica; assay type: cell-based, Entamoeba histolytica; details: Entamoeba histolytica
Procedure: as §1

[6] = system: C. difficile 630 (ATCC BAA-1382); assay: Broth microdilution MIC assay, C. difficile 630; assay type: cell-based, Clostridium difficile; details: Clostridioides difficile, ATCCBAA1382; strain 630, MtzS; median of n = 4; read-out: MIC C. difficile 630
Procedure: Clostridium difficile strains (630, ATCC BAA-1382 and NAP1/027, ATCC BAA-1803) were maintained as previously described. The minimum inhibition concentration (MIC) was determined according to the CLSI Methods with modifications in broth and inoculum for C. difficile, [25], [26]. Briefly, compounds and control antibiotics were serially diluted two-fold in 96-well plates (Non-binding surface, Corning). […] C. difficile bacteria from BHIS(TA) agar plates were cultured anaerobically in BHIS at 37 °C overnight. […] An antibiotic standard, a positive growth control (no compound) and a sterility control (no bacteria) were included on each 96 well plate. Plates were covered and incubated at 37 °C for 24 h. MICs for each strain were determined as the lowest concentration without visible growth. […] Median MICs are reported with a range given when the median MIC was between two tested concentrations.

[7] = system: T. vaginalis F1623; assay: ATP-bioluminescence growth/survival EC50 assay, T. vaginalis; assay type: cell-based, Trichomonas vaginalis; details: Trichomonas vaginalis, read-out: EC50 T. vaginalis F1623, MtzS; minimum n = 3
Procedure: as §1

[8] = read-out: EC50 G. lamblia WB, MtzS strain WB, minimum n = 3
[9] = read-out: pEC50 ± SE G. lamblia WB, MtzS strain WB (converted)
[10] = read-out: EC50 E. histolytica HM1:IMSS
[11] = read-out: pEC50 ± SE E. histolytica HM1:IMSS (converted)

SMILES	EC50 [1, 8] [µM]	EC50 [1, 9] [µM]	S.I (CC50/EC50) [1]	MIC [2] [µg/mL]	CC50 at 24 h [3] [µM]	CC50 at 24 h [4] [µM]	EC50 [5, 10] [µM]	EC50 [5, 11] [µM]	MIC [6] [µg/mL]	CC50 at 24 h ([3]; HEK293 cells) [µM]	CC50 at 24 h ([4]; HepG2 cells) [µM]	EC50 [7] [µM]
CNC(=O)c1nc([N+](=O)[O-])cn1Cc1ccc(OC(F)(F)F)cc1 [Compound 14a, N-methyl-4-nitro-1-(4-(trifluoromethoxy)benzyl)-1H-imidazole-2-carboxamide]	3.4	3.39	>29	> 64	> 100	> 100	30	30.2	–	–	–	–
NC(=O)c1nc([N+](=O)[O-])cn1Cc1ccc(OC(F)(F)F)cc1 [Compound 13b, 4-nitro-1-(4-(trifluoromethoxy)benzyl)-1H-imidazole-2-carboxamide]	4.1	4.07	>22	–	> 100	> 100	> 25	> 25.1	> 64	–	–	–
NC(=O)c1nccn1Cc1ccc(OC(F)(F)F)cc1 [Compound 18, 1-(4-(trifluoromethoxy)benzyl)-1H-imidazole-2-carboxamide]	> 50	–	–	–	–	–	> 50	–	> 64	–	–	–
NC(=O)c1nc([N+](=O)[O-])cn1Cc1ccccn1 [Compound 13e, 4-nitro-1-(pyridin-2-ylmethyl)-1H-imidazole-2-carboxamide]	27	26.9	>3.7	> 64	–	–	> 50	> 50.1	> 64	> 100	> 100	–
NC(=O)c1nc([N+](=O)[O-])cn1Cc1cccc(OC(F)(F)F)c1 [Compound 13c, 4-nitro-1-(3-(trifluoromethoxy)benzyl)-1H-imidazole-2-carboxamide]	8.4	8.32	>12	–	> 100	> 100	> 50	> 50.1	> 64	–	–	–
O=C(NCc1ccc(F)cc1)c1ncc[nH]1 [Compound 17, N-(4-fluorobenzyl)-1H-imidazole-2-carboxamide]	> 50	–	–	–	–	–	> 50	–	> 64	–	–	> 20
Cc1ccc(CCn2cc([N+](=O)[O-])nc2C(N)=O)cc1 [Compound 13d, 1-(4-methylphenethyl)-4-nitro-1H-imidazole-2-carboxamide]	> 50	> 50.1	–	> 64	–	–	> 50	> 50.1	> 64	> 100	> 100	–
Nc1c[nH]c(C(=O)NCc2ccc(F)cc2)n1 [Compound 20, 4-amino-N-(4-fluorobenzyl)-1H-imidazole-2-carboxamide]	> 50	–	–	–	–	–	> 50	–	> 64	–	–	> 20

Source: article PMC4920673, “Nitroimidazole carboxamides as antiparasitic agents targeting Giardia lamblia, Entamoeba histolytica and Trichomonas vaginalis” (European Journal of Medicinal Chemistry, 2016)
